Like-named read-outs stand apart in the source and are kept apart here.
Assays:
[1] = Stability in physiological-like solution by 1H-NMR and HPLC; format: physicochemical
Method: The stability of 3 was investigated by ^1H-NMR spectroscopy in DMSO-d6/D2O (5:95, v/v) at pH 7.4 (2 mM phosphate buffer) and 37 °C. […] After 8 h of incubation we observed a decrease in intensity of the peaks of 3 and the concomitant increase of a new set of peaks, marked with ● in Figure 8b (H5, 8.09 ppm; H7, 7.44 ppm; H16/20 7.35 ppm), that was assigned to compound 2 by comparison with a spectrum of the TSPO ligand recorded in similar conditions.
An HPLC analysis of the sample was performed after 108 h incubation at 37 °C. […] No reduction of the Pt(IV) complex occurred under the conditions used in this experiment.
The sample was incubated at 37 °C in the dark and ^1H-NMR spectra recorded at different time intervals.
The NMR solution was further analyzed by HPLC analysis. Stationary phase: Waters Symmetry RP-C18 column, 5 μm, 4.6 × 250 mm, 100 Å. Mobile phase: phase A = water and phase B = Acetonitrile; isocratic elution 5% phase B for 5 min, linear gradient from 5% to 50% phase B in 10 min, isocratic elution 50% phase B for 7 min, linear gradient from 50% to 5% phase B in 2 min, isocratic elution 5% phase B for 6 min. Flow rate = 0.7 mL·min^−1. UV-visible detector set at 220 nm.

[2] = molecular target: T1, TSPO (Rattus norvegicus, UniProt P16257); experiment: TSPO receptor binding assay, displacement of [3H]-PK 11195
T1 construct: Membranes from C6 rat glioma cells were prepared as described by Piccinonna et al; endogenous in cells; host or cells: C6 rat glioma cell membranes
Method: Membranes from C6 rat glioma cells were prepared as described by Piccinonna et al. with minor modifications. In brief, cells scraped in PBS and harvested, were then homogenized with a Brinkman Polytron (Kinematica AG, Münstertäler, Germany). After centrifugation at 37,000× g for 30 min at 4 °C the resulting pellet was resuspended in ice-cold 10 mM PBS and stored at −80 °C until use.

[3] = system: human LoVo colon adenocarcinoma; experiment: MTT cell proliferation assay, LoVo; format: cell-based; conditions: 72 h treatment; for IC50: MTT, read-out: IC50 (concentration inducing 50% cell survival inhibition)
Method: (§1) The cytotoxicity of the compounds, expressed as IC50 values after 72 h incubation (except in two cases where it is expressed as the % of cell viability at the maximum concentration tested of 100 μM) are reported in Table 3.
(§2) Human MCF7 breast carcinoma, human U87 glioblastoma, human LoVo colon adenocarcinoma cell lines and C6 rat glioma cells were used. As recommended for these cell lines, the base medium used (EuroClone, Pero (MI), Italy) was RPMI for MCF7 cells, DMEM for U87 and C6 cells, and F-12/HAM for LoVo cells, enriched with fetal bovine serum (10%), penicillin (100 U/mL)/streptomycin (100 μg/mL) (1%) and glutamine 200 mM (1%) (EuroClone, Pero (MI), Italy). Cells were incubated at 37 °C under an atmosphere containing 5% CO2.
(§3) Determination of cell growth inhibition was performed on MCF7, U87 and LoVo cell lines, using the 3-[4,5-dimethylthiazol-2-yl]-2,5-diphenyltetrazoliumbromide (MTT) assay. The determination of the % of cell viability after treatment with the test compounds, was performed as described by Denora et al.. Briefly, cells were dispensed on 96 microtiter plates at a density of 5000 cells/well and, after overnight incubation, were exposed for 72 h to solutions of the compounds with concentration in the range 0.01–100 µM. After addition of MTT (10 μL of 0.5% w/v in PBS) and incubation for an additional 3 h at 37 °C, the cells were lysed with 100 μL of DMSO/EtOH 1:1 (v/v) solution, dispensed in each well. A PerkinElmer 2030 multilabel reader Victor TM X3 (manufactured for WALLAC Oy, Turku, Finland by PerkinElmer Singapore was used for the absorbance determination at 570 nm.

[4] = system: human U87 glioblastoma; experiment: MTT cell proliferation assay, U87; format: cell-based; conditions: U87, 72 h treatment, read-out: IC50 (concentration inducing 50% cell survival inhibition)
Method: as §1, §2, §3

[5] = system: human MCF7 breast carcinoma; experiment: MTT cell proliferation assay, MCF7; format: cell-based; conditions: MCF7, 72 h treatment; for IC50: MTT, read-out: IC50 (concentration inducing 50% cell survival inhibition)
Method: as §1, §2, §3

[6] = system: LoVo colon cancer cells; experiment: Platinum cellular uptake by ICP-MS; format: cell-based, human
Excerpt: As already reported, oxaliplatin is a chemotherapeutic drug mainly used for the treatment of colorectal cancer, therefore, we extended our investigation only to LoVo cells. First we measured the intracellular accumulation of platinum by ICP-MS. […] Most likely, organic cation transporters (OCT) may facilitate the uptake of oxaliplatin [47] at short time exposure and then, after saturation, the passive diffusion of the most lipophilic compounds becomes prominent.
A Varian 820-MS ICP mass spectrometer (Varian Italia, Cernusco sul Naviglio (MI), Italy) was used to perform the inductively coupled plasma mass spectrometry (ICP-MS) analyses for the determination of the platinum cellular uptake in LoVo colon cancer cells. Cells were seeded in 60 mm tissue culture dishes at a density of 500,000 cells/dish and incubated at 37 °C in a humidified atmosphere with 5% CO2. […] The platinum content was determined by ICP-MS.

[7] = system: LoVo cells; experiment: Cell cycle analysis by flow cytometry (propidium iodide); format: cell-based, human; conditions: for Perturbation of cell cycle progression: 24 h treatment at IC50 concentrations (compound 2 at 100 µM), FCM
Method: Figure 9 Flow cytometric analysis of LoVo cells stained with propidium iodide after 24 h of treatment with test compounds.
Then, the experimental procedure described in our previous work was performed.

[8] = after 4 h treatment at IC50 concentration
[9] = after 24 h treatment at IC50 concentration
[10] = Homo sapiens, 100 µM (maximum concentration tested)

T1 sequence (P16257 whole entry): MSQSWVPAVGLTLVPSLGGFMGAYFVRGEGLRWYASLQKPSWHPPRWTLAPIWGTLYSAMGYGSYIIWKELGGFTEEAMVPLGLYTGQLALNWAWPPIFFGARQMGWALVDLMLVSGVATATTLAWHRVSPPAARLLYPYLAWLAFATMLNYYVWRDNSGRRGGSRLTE

Structure (SMILES): CCCN(CCC)C(=O)Cc1c(-c2ccc(OCC(=O)OCC[O][Pt]3([Cl])[O]C(=O)C(=O)[O]3)cc2)nc2c(Cl)cc(Cl)cn12.N[C@@H]1CCCC[C@H]1N [compound 3, cis,trans,cis-[Pt(ethanedioato)Cl{2-(2-(4-(6,8-dichloro-3-(2-(dipropylamino)-2-oxoethyl)imidazo[1,2-a]pyridin-2-yl)phenoxy)acetate)-ethanolato}(1R,2R-DACH)]]
- Half-life of the complex (hydrolysis of ester bond) ([1]; DMSO-d6/D2O (5:95, v/v), pH 7.4 (2 mM phosphate buffer), 37 °C, 52 μM, from NMR): approximately 24 h
- Time after which signals disappeared completely ([1]; DMSO-d6/D2O (5:95, v/v), pH 7.4 (2 mM phosphate buffer), 37 °C, 1H-NMR): 108 h
- Degradation behaviour in physiological-like conditions ([1]; pH 7.4, 37 °C, HPLC after 108 h incubation): slow hydrolysis of the ester bond
- IC50 ([2]; displacement of [3H]-PK 11195 (0.7 nM), Table 2: rat cerebral cortex, method: C6 rat glioma cell membranes, 90 min, 25 °C, read-out: IC50 TSPO): 0.0186 ± 0.00084 µM
- IC50 ([3]; listed as cis,trans,cis-[Pt(ethanedioato)Cl{2-(2-(4-(6,8-dichloro-3-(2-(dipropylamino)-2-o))))): 2.31 µM
- IC50 [3]: 2.3 ± 0.1 µM
- IC50 [4]: 16.1 ± 0.3 µM
- IC50 [5]: 14.1 ± 0.1 µM
- Uptake by LoVo Cells (ppb of Pt) [6, 8]: 0.33 ± 0.02 ppb of Pt
- Uptake by LoVo Cells (ppb of Pt) [6, 9]: 0.77 ± 0.02 ppb of Pt
- Induction of apoptosis ([7]; 24 h treatment): did not induce apoptosis
- Perturbation of cell cycle progression [7]: no notable changes compared to oxaliplatin

Structure (SMILES): O=C1[O][Pt-2]2([NH2+]C3CCCC[C@H]3[NH2+]2)[O]C1=O (stereo in doubt) [Oxaliplatin, trans-1R,2R-diaminocyclohexane(oxalato)platinum(II)]
- IC50 [3]: 0.46 ± 0.01 µM
- IC50 [4]: 3.1 ± 0.2 µM
- Uptake by LoVo Cells (ppb of Pt) [6, 8]: 0.24 ± 0.04 ppb of Pt
- Uptake by LoVo Cells (ppb of Pt) [6, 9]: 0.38 ± 0.01 ppb of Pt
- Perturbation of cell cycle progression [7]: delayed the S-phase and started to accumulate cells in G2/M-phase and G0/G1 phase

Structure (SMILES): CCCN(CCC)C(=O)Cc1c(-c2ccc(OCC(=O)O)cc2)nc2c(Cl)cc(Cl)cn12 [compound 2, 2-(4-(6,8-dichloro-3-(2-(dipropylamino)-2-oxoethyl)imidazo[1,2-a]pyridin-2-yl)phenoxy)acetic acid]
- IC50 [2]: 0.00212 ± 0.0001 µM
- viability at 100 µM [3, 10]: 65%
- IC50 ([4]; Homo sapiens): 70.2 ± 0.3 µM
- viability at 100 µM [5, 10]: 53%
- Perturbation of cell cycle progression [7]: induced a sub-G0/G1 cell population

Structure (SMILES): O=C1[O][Pt]2([Cl])([O]CCO)([NH]C3CCCCC3[NH]2)[O]C1=O (mixture of isomers) [compound 1, Cis,trans,cis-[Pt(ethanedioato)Cl(2-hydroxyethanolato)(1R,2R-DACH)]]
- IC50 [3]: 2.5 ± 0.5 µM
- IC50 [4]: 9.1 ± 0.4 µM
- IC50 [5]: 8.2 ± 0.4 µM
- Uptake by LoVo Cells (ppb of Pt) [6, 8]: 0.18 ± 0.01 ppb of Pt
- Uptake by LoVo Cells (ppb of Pt) [6, 9]: 0.59 ± 0.03 ppb of Pt
- Perturbation of cell cycle progression [7]: no notable changes compared to oxaliplatin

— article PMC4964386, “Synthesis, Characterization, and Cytotoxicity of the First Oxaliplatin Pt(IV) Derivative Having a TSPO Ligand in the Axial Position” (International Journal of Molecular Sciences, 2016)
